Source: US6821980B1, “Substituted 5-benzyl-2,4-diaminopyrimidines” (Basilea Pharmaceutica AG, priority 1999, dated 2004)
≈ marks a conversion by molar mass, not a printed value.

Legend:
[1] = test system: Streptococcus pneumoniae 1/1; test: MIC against Streptococcus pneumoniae 1/1; format: cell-based; conditions: Table 2; Streptococcus pneumoniae 1/1, trimethoprim- and penicillin-resistant, serotype 6; clinical isolate; read-out: MIC Sp1/1
[2] = test system: Staphylococcus aureus 101; test: MIC against Staphylococcus aureus 101; format: cell-based; conditions: Table 2; Staphylococcus aureus 101, MRSA- and trimethoprim-resistant; clinical isolate; read-out: MIC Sa101
[3] = target: T1, purified DHFR of strain Sp1/1 of Streptococcus pneumoniae (Streptococcus pneumoniae serotype 4, UniProt Q54801); format: biochemical; conditions: Table 2; IC50 against purified DHFR of strain Sp1/1
T1 sequence (Q54801 1-168 I100L): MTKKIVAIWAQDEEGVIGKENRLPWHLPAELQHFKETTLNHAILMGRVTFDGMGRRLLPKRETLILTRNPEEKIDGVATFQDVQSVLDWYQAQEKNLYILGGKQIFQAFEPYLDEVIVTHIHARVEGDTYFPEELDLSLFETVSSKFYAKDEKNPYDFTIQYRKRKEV

[4] = target: purified DHFR of strain 157/4696 of Staphylococcus aureus (Staphylococcus aureus, UniProt P13955); test: biochemical
Sequence of purified DHFR of strain 157/4696 of Staphylococcus aureus (P13955 whole entry): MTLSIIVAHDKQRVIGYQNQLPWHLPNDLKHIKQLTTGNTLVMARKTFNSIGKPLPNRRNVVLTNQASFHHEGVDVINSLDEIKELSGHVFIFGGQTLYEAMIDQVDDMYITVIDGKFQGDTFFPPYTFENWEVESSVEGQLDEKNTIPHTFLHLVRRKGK

| SMILES | MIC [1] [µg/mL] | MIC [2] [µg/mL] | IC50 [3] [nM] | IC50 [4] [nM] |
| --- | --- | --- | --- | --- |
| CCOc1cc(Cc2cnc(N)nc2N)cc(OCCC2CC2)c1-c1ccc(O)cc1 [Example 08-l, 2′-(2-Cydopropyl-ethoxy)-4′-(2,4-diamino-pyrimidin-5-ylmethyl)-6′-ethoxy-biphenyl-4-ol] | 8 (≈ 19 µM) | 4 (≈ 9.51 µM) | 58 | 2200 |
| CCOc1cc(Cc2cnc(N)nc2N)cc(OC(C)C)c1-c1ccc(O)cc1 [Example 08-m, 4′-(2,4-diamino-pyrimidin-5-ylmethyl)-6′-ethoxy-2′-isopropoxy-biphenyl-4-ol] | 4 (≈ 10.1 µM) | 8 (≈ 20.3 µM) | 65 | 860 |
| CCOc1cc(Cc2cnc(N)nc2N)cc(OCC(C)C)c1-c1ccc(O)cc1 [Example 08-n, 4′-(2,4-Diamino-pyrimidin-5-ylmethyl)-6′-ethoxy-2′-isobutoxy-biphenyl-4-ol] | 2 (≈ 4.9 µM) | 4 (≈ 9.79 µM) | 15 | 1200 |
| CCOc1cc(Cc2cnc(N)nc2N)cc(OCC2(C)CC2)c1-c1ccc(O)cc1 [Example 08-o, 4′-(2,4-Diamino-pyrimidin-5-ylmethyl)-6′-ethoxy-2′-[(1-methyl-cyclopropyl)-methoxy]-biphenyl-4-ol] | 2 (≈ 4.76 µM) | 4 (≈ 9.51 µM) | 51 | 1400 |
| CCOc1cc(Cc2cnc(N)nc2N)cc(OCC(C)(C)CO)c1-c1ccc(O)cc1 [Example 08-p] | 4 (≈ 9.12 µM) | 8 (≈ 18.2 µM) | 20 | 800 |
| CCOc1cc(Cc2cnc(N)nc2N)cc(OCCc2scnc2C)c1-c1ccc(O)cc1 [Example 08-q, 4′-(2,4-Diamino-pyrimidin-5-ylmethyl)-6′-ethoxy-2′-[2-(4-methyl-thiazol-5-yl)-ethoxy]-biphenyl-4-ol] | 8 (≈ 16.8 µM) | 8 (≈ 16.8 µM) | 28 | 1400 |
| CCOc1cc(Cc2cnc(N)nc2N)cc(OC2CCC(OC)C2)c1-c1ccc(O)cc1 (stereo not drawn) [Example 08-r, 5-[6-Ethoxy-2-(3-methoxy-cyclopentyloxy)-4′-hydroxy-biphenyl-4-ylmethyl]-pyrimidine-2,4-diamine] | 8 (≈ 17.8 µM) | 8 (≈ 17.8 µM) | 37 | 1200 |
| CCOc1cc(Cc2cnc(N)nc2N)cc(OCC(F)(F)F)c1-c1ccc(O)cc1 [Example 08-s] | 2 (≈ 4.6 µM) | 4 (≈ 9.21 µM) | 31 | 3700 |
| CCOc1cc(Cc2cnc(N)nc2N)cc(OC2CCC(CC#N)C2)c1-c1ccc(O)cc1 (stereo not drawn) [Example 08-w, {3-[4-(2,4-Diamino-pyhmidin-5-ylmethyl)-6-ethoxy-4′-hydroxy-biphenyl-2-yloxy]-cyclopentyl}-acetonitrile] | 4 (≈ 8.7 µM) | 8 (≈ 17.4 µM) | 21 | 920 |
| CCOc1cc(Cc2cnc(N)nc2N)cc(OC2CCC(C#N)C2)c1-c1ccc(O)cc1 (stereo not drawn) [Example 08-x, 3-[4-(2,4-Diamino-pyximidin-5-ylmethyl)-6-ethoxy-4′-hydroxy-biphenyl-2-yloxy]-cyclopentanecarbonitrile] | 4 (≈ 8.98 µM) | 8 (≈ 18 µM) | 25 | 1400 |
| CCOc1cc(Cc2cnc(N)nc2N)cc(OCC(C)(C)COC)c1-c1ccc(OC)cc1 [Example 09-a, 5-[6-Ethoxy-4′-methoxy-2-(3-methoxy-2,2-dimethyl-propoxy)-biphenyl-4-ylmethyl]-pyrimidine-2,4-diamine] | 4 (≈ 8.57 µM) | 8 (≈ 17.1 µM) | 90 | 3100 |
| CCOc1cc(Cc2cnc(N)nc2N)cc(OCC2(CCC#N)CC2)c1-c1ccc(OC)cc1 [Example 09-c, 3-{1-[4-(2,4-Diamino-pyrimidin-5-ylmethyl)-6-ethoxy-4′-methoxy-biphenyl-2-yloxymethyl]-cyclopropyl}-propionitrile] | 1 (≈ 2.11 µM) | 4 (≈ 8.45 µM) | 16 | 900 |
| CCOc1cc(Cc2cnc(N)nc2N)cc(OCC2CC2)c1-c1ccc(OC)cc1 [Example 09-d, 5-(2-Cyclopropylmethoxy-6-ethoxy-4′-methoxy-biphenyl-4-ylmethyl)-pyrimidine-2.4-diamine] | 2 (≈ 4.76 µM) | 4 (≈ 9.51 µM) | 30 | 1500 |
| CCCOc1cc(Cc2cnc(N)nc2N)cc(OCC)c1-c1ccc(OC)cc1 [Example 09-e, 5-(6-Ethoxy-4′-methoxy-2-propoxy-biphenyl-4-ylmethyl)-pyrimidine-2,4-diamine] | 4 (≈ 9.79 µM) | 4 (≈ 9.79 µM) | 45 | 1000 |
| CCOc1cc(Cc2cnc(N)nc2N)cc(OC(C)C)c1-c1ccc(OC)cc1 [Example 09-f, 5-(2-Ethoxy-6-isopropopy-4′-methoxy-biphenyl-4-ylmethyl)-pyrimidine-2,4-diamine] | 8 (≈ 19.6 µM) | 8 (≈ 19.6 µM) | 140 | 1900 |
| CCOc1cc(Cc2cnc(N)nc2N)cc(OCC(C)C)c1-c1ccc(OC)cc1 [Example 09-g, 5-(2-Ethoxy-6-isobutox-4′-methoxy-biphenyl-4-ylmethyl)-pyrimidine-2,4-diamine] | 4 (≈ 9.47 µM) | 4 (≈ 9.47 µM) | 50 | 1600 |
| CCOc1cc(Cc2cnc(N)nc2N)cc(OCC2CCC2)c1-c1ccc2c(c1)OCO2 [Example 10-a, 5-(4-Benzof[1.3]dioxol-5-yl-3-cyclobutylmethoxy-5-ethoxy-benzyl)-pyrimidine-2,4-diamine] | 8 (≈ 17.8 µM) | 8 (≈ 17.8 µM) | 34 | 1400 |
| CCOc1cc(Cc2cnc(N)nc2N)cc(OCC2CC2)c1-c1ccc2c(c1)OCO2 [Example 10-b, 5-(4-Benzo[1.3]dioxol-5-yl-3-cyclopropylmethoxy-5-ethoxy-benzyl)-pyrimidine-2,4-diamine] | 2 (≈ 4.6 µM) | 8 (≈ 18.4 µM) | 40 | 2400 |
| CCOc1cc(Cc2cnc(N)nc2N)cc(OCC(C)C)c1-c1ccc2c(c1)OCO2 [Example 10-c, 5-(4-Benzo[1,3]dioxol-5-yl-3-ethoxy-5-isobutoxy-benzyl)-pyrimidine-2,4-diamine] | 4 (≈ 9.16 µM) | 8 (≈ 18.3 µM) | 11 | 5000 |
| CCOc1cc(Cc2cnc(N)nc2N)cc(OC2CCCC2)c1-c1ccc2c(c1)OCO2 [Example 10-d, 5-(4-Benzo[1,3]dioxol-5-yl-3-cyclopentyloxy-5-ethoxy-benzyl)-pyrimidine-2,4-diamine] | 8 (≈ 17.8 µM) | 4 (≈ 8.92 µM) | 42 | 1700 |
| CCOc1cc(Cc2cnc(N)nc2N)cc(OC2CCC2)c1-c1ccc2c(c1)OCO2 [Example 10-e, 5-(4-Benzo[1.31]dioxol-5-yl-3-cyclobutoxy-5-ethoxy-benzyl)-pyrmidine-2,4-diamine] | 8 (≈ 18.4 µM) | 8 (≈ 18.4 µM) | 50 | 1800 |
| C=C(C)COc1cc(Cc2cnc(N)nc2N)cc(OCC)c1-c1ccc2c(c1)OCO2 [Example 10-f, 5-[4-Benzo[1.3]dioxol-5-yl-3-ethoxy-5-(2-methyl-allyloxy)-benzyl]-pyrimidine-2,4-diamine] | 8 (≈ 18.4 µM) | 8 (≈ 18.4 µM) | 85 | 1800 |
| CCOc1cc(Cc2cnc(N)nc2N)cc(OCC2CC2)c1-c1ccc(N)c(C)c1 [Example 11-a] | 1 (≈ 2.38 µM) | 8 (≈ 19.1 µM) | 18 | 1800 |
| CCOc1cc(Cc2cnc(N)nc2N)cc(OCC2CC2)c1-c1ccc(OC)c(N)c1 [Example 12-, 5-(3′-Amino-2-cyclopropylmethoxy-6-ethoxy-4′-methoxy-biphenyl-4-ylmethl)-pyrimidine-2,4-diamine] | 2 (≈ 4.59 µM) | 8 (≈ 18.4 µM) | 14 | 1800 |
| CCOc1cc(Cc2cnc(N)nc2N)cc(OCC2CC2)c1-c1ccc(N)cc1 [Example 13-, 5-(4′-Amino-2-cyclopropylmethoxy-6-ethoxy-biphenyl-4-ylmethyl)-pyrimidine-2,4-diamine] | 2 (≈ 4.93 µM) | 8 (≈ 19.7 µM) | 16 | 1400 |
| CCOc1cc(Cc2cnc(N)nc2N)cc(OS(C)(=O)=O)c1-c1cccc(N)c1 [Example 14-a, Methanesulphonic acid 3′-amino-4-(2,4-diamino-gyrimidin-5-ylmethyl)-6-ethoxy-biphenyl-2-yl ester] | 4 (≈ 9.31 µM) | 8 (≈ 18.6 µM) | 23 | 350 |
| CCOc1cc(Cc2cnc(N)nc2N)cc(OS(=O)(=O)CC)c1-c1cccc(N)c1 [Example 14-b, Ethanesulphonic acid 3′-amino-4-(2,4-diamino-pyrimidin-5-ylmethyl)-6-ethoxy-biphenyl-2-yl ester] | 2 (≈ 4.51 µM) | 2 (≈ 4.51 µM) | 19 | 140 |
| CCCS(=O)(=O)Oc1cc(Cc2cnc(N)nc2N)cc(OCC)c1-c1cccc(N)c1 [Example 14-d] | 1 (≈ 2.19 µM) | 2 (≈ 4.37 µM) | 16 | 82 |
| CCOc1cc(Cc2cnc(N)nc2N)cc(OS(=O)(=O)c2ccc(OC)c(F)c2)c1-c1cccc(N)c1 [Example 14-e, 3-Fluoro-4-methoxy-benzenesulphonic acid 3′-amino-4-(2,4-diamino-pyrimidin-5-ylmethyl)-6-ethoxy-biphenyl-2-yl ester] | 1 (≈ 1.85 µM) | 8 (≈ 14.8 µM) | 12 | 410 |
| CCOc1cc(Cc2cnc(N)nc2N)cc(OS(=O)(=O)c2cccs2)c1-c1cccc(N)c1 [Example 14-f, Thiophene-2-sulphonic acid 3′-amino-4-(2,4-diamino-pyrimidin-5-ylmethyl)-6-ethoxy-biphenyl-2-yl ester] | 1 (≈ 2.01 µM) | 4 (≈ 8.04 µM) | 1.8 | 320 |
